The values that follow come from patent US20100035888A1, “Diaryl Urea for Treating Pulmonary Hypertension” (Bater Healthcare AG, priority 2005, published 2010).

In the test the test system is monocrotaline-treated rats with pulmonary hypertension. Briefly: Pulmonary artery pressure in monocrotaline treated rats (MCT-induced pulmonary arterial hypertension). In kind it is in vivo, rat. The conditions noted are these: 3 mg/kg by gavage once daily from day 14 to day 28 after MCT. As to the method:
The effects of the compounds and drug combinations according to the invention are tested in vitro on isolated rat pulmonary arteries and in vivo in monocrotaline-treated rats with pulmonary hypertension.
Male Sprague Dawley rats (250-300 g) are treated with monocrotaline 60 mg/kg subcutanously (=day 0). On day 14 after monocrotaline injection treatment the compound/combination to be tested is administered. On day 28 hemodynamic parameters, i.e. right ventricular pressure, systemic blood pressure, heart rate, arterial and venous oxygen saturation are measured and compared with untreated control animals.
Monocrotaline (MCT) treated rats are randomized to receive 4{4-[3-(4-chloro-3-trifluoromethylphenyl)-ureido]-3-fluorophenoxy}-pyridine-2-carboxylic acid methylamide 3 mg/kg or vehicle by gavage once daily after the onset of moderate pulmonary arterial hypertension starting 14 days after the injection of MCT until day 28. […]

The structures appear in SMILES notation.

As to `CNC(=O)c1cc(Oc2ccc(NC(=O)Nc3ccc(Cl)c(C(F)(F)F)c3)c(F)c2)ccn1` [BAY73-4506, 4{4-[3-(4-chloro-3-trifluoromethylphenyl)-ureido]-3-fluorophenoxy}-pyridine-2-carboxylic acid methylamide], for the setting “control 0%, placebo 40%”, the mortality rate was found to be 0%. Moreover, the “right ventricle/left ventricle+septum ratio (right ventricular hypertrophy)” value (mean±SEM, control 0.25±0.01, placebo 0.62±0.02) stood at 0.28±0.01.
